{"source": "patent US12331035B2", "about": "“Bicyclic compound and use thereof” (SK BIOPHARMACEUTICALS CO., LTD., priority 2019, dated 2025)", "data": [{"target": "T1, PRMT5-MEP50 enzyme complex (Homo sapiens, UniProt O14744)", "T1 construct": "purchased BPS Bioscience (USA) 51045", "T1 sequence (O14744 2-637 limits assumed)": "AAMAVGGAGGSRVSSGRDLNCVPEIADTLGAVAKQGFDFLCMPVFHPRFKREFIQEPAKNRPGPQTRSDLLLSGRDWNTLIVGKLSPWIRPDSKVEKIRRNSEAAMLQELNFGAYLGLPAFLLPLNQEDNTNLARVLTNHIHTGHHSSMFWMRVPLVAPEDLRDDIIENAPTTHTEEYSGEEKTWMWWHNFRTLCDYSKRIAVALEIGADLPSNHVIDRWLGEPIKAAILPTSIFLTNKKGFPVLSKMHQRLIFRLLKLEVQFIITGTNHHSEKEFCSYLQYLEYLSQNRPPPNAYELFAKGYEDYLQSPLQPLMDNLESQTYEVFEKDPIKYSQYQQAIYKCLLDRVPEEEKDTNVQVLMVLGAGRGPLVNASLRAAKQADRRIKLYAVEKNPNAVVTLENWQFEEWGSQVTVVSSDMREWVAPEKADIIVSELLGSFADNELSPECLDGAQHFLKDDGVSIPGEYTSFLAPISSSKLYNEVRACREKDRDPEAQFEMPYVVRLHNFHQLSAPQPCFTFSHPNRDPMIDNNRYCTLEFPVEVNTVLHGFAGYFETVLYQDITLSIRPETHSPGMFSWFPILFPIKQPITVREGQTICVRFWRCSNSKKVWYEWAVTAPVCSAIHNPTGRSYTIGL", "T1 sequence (Q9BQA1 2-342 partner limits assumed)": "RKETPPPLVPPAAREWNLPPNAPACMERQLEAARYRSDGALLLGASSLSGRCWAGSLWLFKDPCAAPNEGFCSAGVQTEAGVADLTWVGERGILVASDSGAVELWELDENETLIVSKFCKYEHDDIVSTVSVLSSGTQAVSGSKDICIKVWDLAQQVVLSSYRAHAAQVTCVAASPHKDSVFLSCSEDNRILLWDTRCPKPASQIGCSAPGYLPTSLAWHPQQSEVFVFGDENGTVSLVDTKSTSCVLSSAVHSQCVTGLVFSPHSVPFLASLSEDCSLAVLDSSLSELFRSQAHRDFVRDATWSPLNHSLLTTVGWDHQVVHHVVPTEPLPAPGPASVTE", "assay": "In vitro PRMT5 enzyme activity assay (methylation of histone H4 arginine H4R3, ELISA absorbance at 450 nm)", "assay_type": "biochemical", "settings": "S-adenosylmethionine, histone H4 peptide, 2 hours at room temperature, 8 points 10 μM to 0.128 nM", "procedure,_shortened": "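Human PRMT5-MEP50 (5 μg/mL working stock) with 2 μM SAM stock on histone H4 (1-20) peptide-coated plates, compound 8-point 1:5 series from 10 μM, 2 h at room temperature. H4R3 methylation detected by antibody/HRP ELISA, absorbance 450 nm; IC50 calculated.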", "units": {"IC50": "nM"}, "values": [{"molecule": "CC(=O)N1CC2CC1CN2c1ccc2c(c1)CCN(C[C@H](O)CN1CCc3ccccc3C1)C2=O", "note": "(stereo partly drawn) [Example 81, 6-(5-acetyl-2,5-diazabicyclo[2.2.1]heptan-2-yl)-2-[(2R)-3-(3,4-dihydro-1H-isoquinolin-2-yl)-2-hydroxy-propyl]-3,4-dihydroisoquinolin-1-one]", "IC50": "1 to 100"}, {"molecule": "CC(=O)N1CCN(c2ccc3c(c2)CCN(C[C@H](O)CN2CCc4ccccc4C2)C3=O)CC12CC2", "note": "[Example 82, 6-(4-acetyl-4,7-diazaspiro[2.5]octan-7-yl)-2-[(2R)-3-(3,4-dihydro-1H-isoquinolin-2-yl)-2-hydroxy-propyl]-3,4-dihydroisoquinolin-1-one]", "IC50": "1 to 100"}, {"molecule": "CC(=O)N1CCC(COc2ccc3c(c2)CCN(C[C@H](O)CN2CCc4ccccc4C2)C3=O)CC1", "note": "[Example 83, 6-[(1-acetyl-4-piperidyl)methoxy]-2-[(2R)-3-(3,4-dihydro-1H-isoquinolin-2-yl)-2-hydroxy-propyl]-3,4-dihydroisoquinolin-1-one]", "IC50": "100 to 1000"}, {"molecule": "CN1CCN(c2ccc3c(c2)CCN(C[C@H](O)CN2CCc4ccccc4C2)C3=O)CCC1=O", "note": "[Example 84, 2-[(2R)-3-(3,4-dihydro-1H-isoquinolin-2-yl)-2-hydroxy-propyl]-6-(4-methyl-5-oxo-1,4-diazepan-1-yl)-3,4-dihydroisoquinolin-1-one]", "IC50": "100 to 1000"}, {"molecule": "CC(C)N1CCN(c2ccc3c(c2)CCN(C[C@H](O)CN2CCc4ccccc4C2)C3=O)CC1=O", "note": "[Example 85, 2-[(2R)-3-(3,4-dihydro-1H-isoquinolin-2-yl)-2-hydroxy-propyl]-6-(4-isopropyl-3-oxo-piperazin-1-yl)-3,4-dihydroisoquinolin-1-one]", "IC50": "100 to 1000"}, {"molecule": "CC(=O)N1CCN(c2ccc3c(c2)CCN(C[C@H](O)CN2CCc4ccccc4C2)C3=O)C(=O)C1", "note": "[Example 86, 6-(4-acetyl-2-oxo-piperazin-1-yl)-2-[(2R)-3-(3,4-dihydro-1H-isoquinolin-2-yl)-2-hydroxy-propyl]-3,4-dihydroisoquinolin-1-one]", "IC50": "100 to 1000"}, {"molecule": "CC(=O)N1CCN(c2ccc3c(n2)CCN(C[C@H](O)CN2CCc4ccccc4C2)C3=O)CC1", "note": "[Example 88, 2-(4-acetylpiperazin-1-yl)-6-[(2R)-3-(3,4-dihydro-1H-isoquinolin-2-yl)-2-hydroxy-propyl]-7,8-dihydro-1,6-naphthyridin-5-one]", "IC50": "1 to 100"}, {"molecule": "O=C1c2ccc(N3CCOCC3)nc2CCN1C[C@H](O)CN1CCc2ccccc2C1", "note": "[Example 89, 6-[(2R)-3-(3,4-dihydro-1H-isoquinolin-2-yl)-2-hydroxy-propyl]-2-morpholino-7,8-dihydro-1,6-naphthyridin-5-one]", "IC50": "1 to 100"}, {"molecule": "CC(=O)N(C)C1CCN(c2ccc3c(c2)CCN(C[C@H](O)CN2CCc4ccccc4C2)C3=O)CC1", "note": "[Example 90, N-[1-[2-[(2R)-3-(3,4-dihydro-1H-isoquinolin-2-yl)-2-hydroxy-propyl]-1-oxo-3,4-dihydroisoquinolin-6-yl]-4-piperidyl]-N-methyl-acetamide]", "IC50": "1 to 100"}, {"molecule": "O=C1c2ccc(OC3CCOCC3)cc2CCN1C[C@H](O)CN1CCc2ccccc2C1", "note": "[Example 91, 2-[(2R)-3-(3,4-dihydro-1H-isoquinolin-2-yl)-2-hydroxy-propyl]-6-tetrahydropyran-4-yloxy-3,4-dihydroisoquinolin-1-one]", "IC50": "1 to 100"}, {"molecule": "CC(=O)NC1CCN(c2ccc3c(c2)CCN(C[C@H](O)CN2CCc4ccccc4C2)C3=O)CC1", "note": "[Example 92, N-[1-[2-[(2R)-3-(3,4-dihydro-1H-isoquinolin-2-yl)-2-hydroxy-propyl]-1-oxo-3,4-dihydroisoquinolin-6-yl]-4-piperidyl]acetamide]", "IC50": "100 to 1000"}, {"molecule": "CC(=O)N1CCCC(Nc2ccc3c(c2)CCN(C[C@H](O)CN2CCc4ccccc4C2)C3=O)C1", "note": "(stereo partly drawn) [Example 93, 6-[(1-acetyl-3-piperidyl)amino]-2-[(2R)-3-(3,4-dihydro-1H-isoquinolin-2-yl)-2-hydroxy-propyl]-3,4-dihydroisoquinolin-1-one]", "IC50": "1 to 100"}]}]}
